Test results from ChEMBL document CHEMBL2412957, “Synthesis and SAR of 4-aminocyclopentapyrrolidines as orally active N-type calcium channel inhibitors for inflammatory and neuropathic pain” (Bioorg Med Chem Lett, 2013).
≈ marks a conversion by molar mass, not a printed value.

Tested on: not listed separately
Assay: Plasma clearance in rat at 5 umol/kg, iv and 5 umol/kg, po
Assay type: ADME, organism-based
Conditions: not given

Question: Which clearance does the source give for CN[C@@H](CC(C)C)C(=O)N[C@H]1CC[C@@H]2CN(S(=O)(=O)c3ccc(C(F)(F)F)cc3)C[C@@H]21 here?
Answer: 46.7 mL/min/kg

Question: For CN[C@@H](CC(C)C)C(=O)N[C@@H]1CC[C@H]2CN(S(=O)(=O)c3ccc(C(F)(F)F)cc3)C[C@H]21, which clearance is on record?
Answer: 36.7 mL/min/kg

Tested on: not listed separately
Assay: Oral bioavailability in rat at 30 umol/kg
Assay type: ADME, organism-based
Conditions: in vivo, 30 umol/kg

Question: For CC(C)C[C@H](N)C(=O)N[C@@H]1CC[C@H]2CN(S(=O)(=O)c3cccc(C(F)(F)F)c3)C[C@H]21, which bioavailability is on record?
Answer: 0%

Tested on: not listed separately
Assay: Plasma clearance in rat at 5 umol/kg, iv and 30 umol/kg, po
Assay type: ADME, organism-based
Conditions: plasma

Question: For CC(C)C[C@H](N)C(=O)N[C@@H]1CC[C@H]2CN(S(=O)(=O)c3cccc(C(F)(F)F)c3)C[C@H]21, which clearance is on record?
Answer: 568 mL/min/kg

Tested on: not listed separately
Assay: Volume of distribution at steady state in rat at 5 umol/kg, iv and 5 umol/kg, po
Assay type: ADME, organism-based
Conditions: in vivo, read-out: Vdss

Question: Which Vd does the source give for CN[C@@H](CC(C)C)C(=O)N[C@H]1CC[C@@H]2CN(S(=O)(=O)c3ccc(C(F)(F)F)cc3)C[C@@H]21 here?
Answer: 13.2 L/kg

Question: Which Vd does the source give for CN[C@@H](CC(C)C)C(=O)N[C@@H]1CC[C@H]2CN(S(=O)(=O)c3ccc(C(F)(F)F)cc3)C[C@H]21 here?
Answer: 5.6 L/kg

Tested on: not listed separately
Assay: Half life in rat at 5 umol/kg, iv and 30 umol/kg, po
Assay type: ADME, organism-based
Conditions: in vivo

Question: Which half-life does the source give for CC(C)C[C@H](N)C(=O)N[C@@H]1CC[C@H]2CN(S(=O)(=O)c3cccc(C(F)(F)F)c3)C[C@H]21 here?
Answer: 0.5 h

Tested on: not listed separately
Assay: Oral bioavailability in rat at 5 umol/kg
Assay type: ADME, organism-based
Conditions: in vivo

Question: With CN[C@@H](CC(C)C)C(=O)N[C@H]1CC[C@@H]2CN(S(=O)(=O)c3ccc(C(F)(F)F)cc3)C[C@@H]21 as the compound, how does the bioavailability read?
Answer: 50%

Question: Which bioavailability does the source give for CN[C@@H](CC(C)C)C(=O)N[C@@H]1CC[C@H]2CN(S(=O)(=O)c3ccc(C(F)(F)F)cc3)C[C@H]21 here?
Answer: 21%

Target: Voltage-dependent N-type calcium channel subunit alpha-1B (Homo sapiens, UniProt Q00975)
Assay: Inhibition of N-type Cav2.2 channel (unknown origin) by FLIPR assay
Conditions: read-out: IC50

Sequence of Voltage-dependent N-type calcium channel subunit alpha-1B (Q00975 whole entry): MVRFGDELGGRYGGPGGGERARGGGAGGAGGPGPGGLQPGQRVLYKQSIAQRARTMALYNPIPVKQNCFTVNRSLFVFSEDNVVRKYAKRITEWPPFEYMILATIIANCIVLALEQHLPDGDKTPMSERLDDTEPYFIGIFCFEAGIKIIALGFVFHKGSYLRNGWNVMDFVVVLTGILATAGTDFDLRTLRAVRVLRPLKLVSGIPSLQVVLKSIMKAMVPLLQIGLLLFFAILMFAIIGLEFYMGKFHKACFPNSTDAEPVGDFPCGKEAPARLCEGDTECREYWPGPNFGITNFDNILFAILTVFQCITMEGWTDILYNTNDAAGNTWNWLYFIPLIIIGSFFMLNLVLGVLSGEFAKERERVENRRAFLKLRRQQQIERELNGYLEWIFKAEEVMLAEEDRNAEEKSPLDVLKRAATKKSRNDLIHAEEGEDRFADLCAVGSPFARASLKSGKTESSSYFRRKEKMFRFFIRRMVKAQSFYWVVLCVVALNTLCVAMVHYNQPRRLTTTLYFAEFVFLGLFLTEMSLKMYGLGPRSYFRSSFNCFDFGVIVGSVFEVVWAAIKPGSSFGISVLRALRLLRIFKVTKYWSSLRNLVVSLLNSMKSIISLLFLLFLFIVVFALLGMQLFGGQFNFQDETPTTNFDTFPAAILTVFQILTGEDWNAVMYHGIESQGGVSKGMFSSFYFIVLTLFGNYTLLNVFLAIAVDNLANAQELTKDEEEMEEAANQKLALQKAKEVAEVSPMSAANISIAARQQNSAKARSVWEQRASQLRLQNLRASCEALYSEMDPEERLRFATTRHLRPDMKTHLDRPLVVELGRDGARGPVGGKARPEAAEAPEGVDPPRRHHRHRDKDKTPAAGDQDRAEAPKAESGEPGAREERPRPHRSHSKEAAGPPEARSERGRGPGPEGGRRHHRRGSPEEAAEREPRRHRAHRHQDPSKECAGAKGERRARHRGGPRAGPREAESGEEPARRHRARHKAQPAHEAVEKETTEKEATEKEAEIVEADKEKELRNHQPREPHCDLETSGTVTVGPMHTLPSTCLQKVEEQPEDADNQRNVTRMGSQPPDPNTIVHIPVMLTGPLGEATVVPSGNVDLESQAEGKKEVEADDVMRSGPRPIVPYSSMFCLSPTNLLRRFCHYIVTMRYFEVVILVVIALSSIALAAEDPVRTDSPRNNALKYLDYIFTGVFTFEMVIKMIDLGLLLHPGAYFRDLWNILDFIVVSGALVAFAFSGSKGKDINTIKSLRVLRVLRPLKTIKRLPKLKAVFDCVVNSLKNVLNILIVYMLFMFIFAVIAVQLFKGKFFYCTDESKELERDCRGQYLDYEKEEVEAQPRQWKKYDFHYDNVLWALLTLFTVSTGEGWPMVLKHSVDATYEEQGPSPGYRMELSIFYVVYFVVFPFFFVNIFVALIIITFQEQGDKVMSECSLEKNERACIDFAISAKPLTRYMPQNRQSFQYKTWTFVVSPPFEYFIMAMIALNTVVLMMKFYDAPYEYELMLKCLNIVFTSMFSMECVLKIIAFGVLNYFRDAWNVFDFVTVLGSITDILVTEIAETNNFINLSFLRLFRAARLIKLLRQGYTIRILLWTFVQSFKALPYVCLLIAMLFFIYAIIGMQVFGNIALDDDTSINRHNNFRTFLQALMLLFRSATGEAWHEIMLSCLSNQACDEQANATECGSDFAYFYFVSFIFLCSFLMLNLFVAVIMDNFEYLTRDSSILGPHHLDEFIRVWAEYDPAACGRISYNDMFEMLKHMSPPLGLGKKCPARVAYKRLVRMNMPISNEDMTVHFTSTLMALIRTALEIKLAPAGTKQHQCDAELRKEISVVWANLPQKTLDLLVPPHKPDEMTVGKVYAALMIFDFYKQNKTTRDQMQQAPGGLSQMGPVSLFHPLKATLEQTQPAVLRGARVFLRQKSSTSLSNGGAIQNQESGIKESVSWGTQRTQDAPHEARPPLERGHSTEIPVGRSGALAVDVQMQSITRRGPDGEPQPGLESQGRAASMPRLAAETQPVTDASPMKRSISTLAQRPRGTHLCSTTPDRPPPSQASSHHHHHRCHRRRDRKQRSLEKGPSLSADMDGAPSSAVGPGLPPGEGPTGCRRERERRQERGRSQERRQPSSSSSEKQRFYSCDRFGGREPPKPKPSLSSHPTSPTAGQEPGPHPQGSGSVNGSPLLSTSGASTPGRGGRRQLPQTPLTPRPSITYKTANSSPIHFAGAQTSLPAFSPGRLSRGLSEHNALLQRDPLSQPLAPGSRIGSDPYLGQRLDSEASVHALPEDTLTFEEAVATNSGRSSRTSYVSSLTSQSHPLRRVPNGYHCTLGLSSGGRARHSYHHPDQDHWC

Question: For CC(C)C[C@H](N)C(=O)N[C@@H]1CC[C@H]2CN(S(=O)(=O)c3cccc(C(F)(F)F)c3)C[C@H]21, which IC50 is on record?
Answer: 1060 nM

Question: With CN[C@@H](CC(C)C)C(=O)N[C@H]1CC[C@@H]2CN(S(=O)(=O)c3ccc(C(F)(F)F)cc3)C[C@@H]21 as the compound, how does the IC50 read?
Answer: 750 nM

Question: Which IC50 does the source give for CN[C@@H](CC(C)C)C(=O)N[C@@H]1CC[C@H]2CN(S(=O)(=O)c3ccc(C(F)(F)F)cc3)C[C@H]21 here?
Answer: 770 nM

Same assay, conditions: read-out: pIC50 (converted)

Question: For CN[C@@H](CC(C)C)C(=O)N[C@H]1CC[C@@H]2CN(S(=O)(=O)c3ccc(C(F)(F)F)cc3)C[C@@H]21, which IC50 is on record?
Answer: 851 nM

Question: With CN[C@@H](CC(C)C)C(=O)N[C@@H]1CC[C@H]2CN(S(=O)(=O)c3ccc(C(F)(F)F)cc3)C[C@H]21 as the compound, how does the IC50 read?
Answer: 851 nM

Tested on: not listed separately
Assay: AUC in rat at 5 umol/kg, po
Assay type: ADME, organism-based
Conditions: plasma

Question: Which AUC does the source give for CN[C@@H](CC(C)C)C(=O)N[C@H]1CC[C@@H]2CN(S(=O)(=O)c3ccc(C(F)(F)F)cc3)C[C@@H]21 here?
Answer: 422 ng·h/mL

Question: Which AUC does the source give for CN[C@@H](CC(C)C)C(=O)N[C@@H]1CC[C@H]2CN(S(=O)(=O)c3ccc(C(F)(F)F)cc3)C[C@H]21 here?
Answer: 221 ng·h/mL

Tested on: not listed separately
Assay: Solubility of the compound by chemiluminescent nitrogen detection method
Conditions: not given

Question: Which solubility does the source give for CC(C)C[C@H](N)C(=O)N[C@@H]1CC[C@H]2CN(S(=O)(=O)c3cccc(C(F)(F)F)c3)C[C@H]21 here?
Answer: 44 µM (≈ 19.7 µg/mL)

Question: Which solubility does the source give for CN[C@@H](CC(C)C)C(=O)N[C@H]1CC[C@@H]2CN(S(=O)(=O)c3ccc(C(F)(F)F)cc3)C[C@@H]21 here?
Answer: 77 µM (≈ 35.5 µg/mL)

Question: For CN[C@@H](CC(C)C)C(=O)N[C@@H]1CC[C@H]2CN(S(=O)(=O)c3ccc(C(F)(F)F)cc3)C[C@H]21, which solubility is on record?
Answer: 27 µM (≈ 12.5 µg/mL)

Tested on: not listed separately
Assay: Metabolic stability in human liver microsomes assessed as compound remaining after 30 mins
Assay type: ADME, Microsome
Conditions: read-out: Stability

Question: With CC(C)C[C@H](N)C(=O)N[C@@H]1CC[C@H]2CN(S(=O)(=O)c3cccc(C(F)(F)F)c3)C[C@H]21 as the compound, how does the remaining at 0.5 h read?
Answer: 45%

Question: Which remaining at 0.5 h does the source give for CN[C@@H](CC(C)C)C(=O)N[C@H]1CC[C@@H]2CN(S(=O)(=O)c3ccc(C(F)(F)F)cc3)C[C@@H]21 here?
Answer: 54.4%

Question: For CN[C@@H](CC(C)C)C(=O)N[C@@H]1CC[C@H]2CN(S(=O)(=O)c3ccc(C(F)(F)F)cc3)C[C@H]21, which remaining at 0.5 h is on record?
Answer: 50.5%

Tested on: not listed separately
Assay: Volume of distribution at steady state in rat at 5 umol/kg, iv and 30 umol/kg, po
Assay type: ADME, organism-based
Conditions: in vivo, read-out: Vdss

Question: With CC(C)C[C@H](N)C(=O)N[C@@H]1CC[C@H]2CN(S(=O)(=O)c3cccc(C(F)(F)F)c3)C[C@H]21 as the compound, how does the Vd read?
Answer: 15 L/kg

Tested on: not listed separately
Assay: Half life in rat at 5 umol/kg, iv and 5 umol/kg, po
Assay type: ADME, organism-based
Conditions: in vivo

Question: For CN[C@@H](CC(C)C)C(=O)N[C@H]1CC[C@@H]2CN(S(=O)(=O)c3ccc(C(F)(F)F)cc3)C[C@@H]21, which half-life is on record?
Answer: 3.3 h

Question: Which half-life does the source give for CN[C@@H](CC(C)C)C(=O)N[C@@H]1CC[C@H]2CN(S(=O)(=O)c3ccc(C(F)(F)F)cc3)C[C@H]21 here?
Answer: 2.1 h

Tested on: not listed separately
Assay: Metabolic stability in rat liver microsomes assessed as compound remaining after 30 mins
Assay type: ADME, Microsome
Conditions: read-out: Stability

Question: Which remaining at 0.5 h does the source give for CC(C)C[C@H](N)C(=O)N[C@@H]1CC[C@H]2CN(S(=O)(=O)c3cccc(C(F)(F)F)c3)C[C@H]21 here?
Answer: 10.3%

Question: For CN[C@@H](CC(C)C)C(=O)N[C@H]1CC[C@@H]2CN(S(=O)(=O)c3ccc(C(F)(F)F)cc3)C[C@@H]21, which remaining at 0.5 h is on record?
Answer: 69.9%

Question: For CN[C@@H](CC(C)C)C(=O)N[C@@H]1CC[C@H]2CN(S(=O)(=O)c3ccc(C(F)(F)F)cc3)C[C@H]21, which remaining at 0.5 h is on record?
Answer: 47.3%
